{
  "source": "patent US20260216346A1",
  "about": "“COMPOUND, NANOPARTICLES, MEDICINE, AND METHOD FOR PRODUCING NANOPARTICLES” (priority 2022, published 2026)",
  "key": {"[1]": {"test_system": "human breast cancer cell line MCF-7", "assay": "In vitro activity test: cell viability, Cell Counting Kit-8", "format": "cell-based", "conditions": "nanoparticle dispersion, 0.04 to 10 µM (in terms of SN-38), 48 hours, FIG. 2", "description": "A human breast cancer cell line MCF-7 was suspended in Dulbecco's modified Eagle's medium (DMEM) to which 10% fetal bovine serum (FBS) was added, thereby preparing a cell suspension of 2×10^5 cells/mL. The above-described cell suspension was seeded on a 96-well plate at 100 μL per well. The next day, the aqueous dispersion liquid of the nanoparticles of compound (1-1), the aqueous dispersion liquid of the nanoparticles of compound (2-1), or the aqueous dispersion liquid of the nanoparticles of SN-38, prepared as described above, was added to the MCF-7 cell culture solution so that the concentration thereof was 0.04 to 10 µM (in terms of SN-38). Thereafter, the cells were cultured at 37° C. and 5% CO2 for 48 hours. Thereafter, cell viability was measured by a colorimetric method using Cell Counting Kit-8 (manufactured by DOJINDO LABORATORIES.) and a microplate reader."}, "[2]": {"assay": "Drug release test in PBS under reduced dithiothreitol treatment (1)", "format": "physicochemical", "conditions": "nanoparticles 5 μM, PBS (-) pH 7.4 with 10 mM reduced DTT, 37° C., 1 hour or 24 hours, HPLC", "description": "In the present test, the release of SN-38 from compound (1-1) and compound (2-1) in PBS to which reduced DTT was added was evaluated.\nA solution was prepared by adding an aqueous dispersion liquid (5 μM, 500 μL) of nanoparticles of compound (1-1) or an aqueous dispersion liquid (5 μM, 500 μL) of nanoparticles of compound (2-1) to 500 µL of PBS (-) to which 10 mM of reduced dithiothreitol (DTT) had been added. “PBS (-)” used hereinafter is phosphate-buffered saline (pH: 7.4) containing NaCl (137 mM), KCl (2.7 mM), Na2HPO4 (10 mM), and KH2PO4 (1.76 mM).\nThe above-described reaction solution was incubated at 37° C. for 1 hour or 24 hours. 200 μL of the reaction solution after incubation was collected. The collected reaction solution was mixed with 800 μL of a 3% acetic acid solution of acetonitrile/methanol (1/1). The obtained mixed solution was analyzed by high-performance liquid chromatography (detection wavelength: 365 nm) as an analysis target sample."}, "[3]": {"assay": "Drug release test in PBS under reduced glutathione treatment", "format": "physicochemical", "conditions": "nanoparticles 50 μM, PBS(−)/EtOH (7/3) pH 7.4 with 10 mM reduced GSH, 37° C., 1, 6, 24 or 48 hours, HPLC", "description": "In the present test, the release of SN-38 from compound (1-1) and compounds (2-1) to (2-3) in PBS to which the reduced GSH was added was evaluated.\nA reaction solution was prepared by adding the aqueous dispersion liquid (50 μM, 500 μL) of the nanoparticles of compound (1-1) or the aqueous dispersion liquid (50 μM, 500 μL) of the nanoparticles of any one of compounds (2-1) to (2-3) to 500 μL of PBS(−)/EtOH (7/3) (pH: 7.4) to which 10 mM of reduced glutathione (GSH) had been added.\nThe above-described reaction solution was incubated at 37° C. for 1 hour, 6 hours, 24 hours, or 48 hours. 200 μL of the reaction solution was collected after the incubation. The collected reaction solution was mixed with 800 μL of a 3% acetic acid solution of acetonitrile/methanol (1/1). The obtained mixed solution was analyzed by high-performance liquid chromatography (detection wavelength: 365 nm) as an analysis target sample."}, "[4]": {"assay": "Particle diameter of nanoparticles by SEM and DLS", "format": "physicochemical", "conditions": "aqueous dispersion liquid, 0.05 mM", "description": "100 μL of a dimethyl sulfoxide solution of compound (1-1), prepared at 5 mM, was injected into 10 mL of water at room temperature using a syringe, and the mixture was stirred at 1,500 rpm for 2 seconds to obtain an aqueous dispersion liquid of nanoparticles. The final concentration of compound (1-1) in the aqueous dispersion liquid of the nanoparticles was 0.05 mM. It was confirmed by SEM and DLS that a particle diameter thereof was approximately 100 nm. […] A ClogP of compound (1-1) was 5.92."}},
  "note": "Entries after “also recorded” stand apart in the source; their conditions may differ.",
  "data": [
    {"smiles": "CCc1c2c(nc3ccc(OC(=O)C(C)(C)CCSSCCC(C)(C)C(=O)Oc4ccc5nc6c(c(CC)c5c4)Cn4c-6cc5c(c4=O)COC(=O)[C@]5(O)CC)cc13)-c1cc3c(c(=O)n1C2)COC(=O)[C@]3(O)CC", "note": "[Compound (1-1)]", "values": [
      {"measurement": "cell viability of MCF-7", "setting": "[1]", "value": "higher cell viability of MCF-7 compared with SN-38; also recorded: lower than that of compound (2-1)"},
      {"measurement": "release of SN-38", "setting": "[2]", "value": "SN-38 was released"},
      {"measurement": "release of SN-38", "setting": "[3]", "value": "compound (1-1) was reduced and SN-38 was increased with the passage of time"},
      {"measurement": "particle diameter of nanoparticles", "setting": "[4]", "value": "approximately 100 nm"}
    ]}
  ]
}
